Measured values published in US4843066A, “Novel adenosine derivatives and pharmaceutical composition containing them as an active ingredient” (priority 1986, dated 1989).
Read-outs that look alike come from different tables or passages of the source.

How the values were obtained:
[1] = tested on: spontaneously hypertensive rats (SHR); assay: Antihypertensive activity (blood pressure after oral administration); type: in vivo; conditions: SHR; for inhibition in vivo at 30 mg/kg / inhibition in vivo at 10 mg/kg / inhibition in vivo at 100 mg/kg: Rattus norvegicus, decrease vs before; for Blood pressure 2 hrs: 2 hrs after administration; for Blood pressure 2 hrs / Blood pressure 4 hrs / Blood pressure 6 hrs: mean ± S.E.; for Blood pressure 4 hrs: 4 hrs after administration; for Blood pressure 6 hrs: 6 hrs after administration
Method: The test compounds, which were dissolved or suspended in 0.5% C.M.C. aqueous solution, were orally administered to groups of 3 or 4 spontaneously hypertensive rats (SHR), weighing about 300 to 400 g. Blood pressure was measured before and 2, 4 and 6 hours after the administration.

in vivo = conditions: mouse, oral, in 0.5% C.M.C., ddY male mice, death rate for 7 days
[2] = oral 30 mg/kg, 2 hrs, read-out: Blood pressure 2 hrs [Decrease]
[3] = oral 30 mg/kg, 4 hrs, read-out: Blood pressure 4 hrs [Decrease]
[4] = oral 30 mg/kg, 6 hrs, read-out: Blood pressure 6 hrs [Decrease]
[5] = oral 10 mg/kg, 2 hrs, read-out: Blood pressure 2 hrs [Decrease]
[6] = oral 10 mg/kg, 4 hrs, read-out: Blood pressure 4 hrs [Decrease]
[7] = oral 10 mg/kg, 6 hrs, read-out: Blood pressure 6 hrs [Decrease]
[8] = oral 100 mg/kg, 2 hrs, read-out: Blood pressure 2 hrs [Decrease]
[9] = oral 100 mg/kg, 4 hrs, read-out: Blood pressure 4 hrs [Decrease]
[10] = oral 100 mg/kg, 6 hrs, read-out: Blood pressure 6 hrs [Decrease]

With `CNc1ncnc2c1ncn2[C@@H]1O[C@H](CO)[C@@H](O)[C@H]1OC` [Compound 17, N^6-2'-O-dimethyladenosine] the inhibition in vivo at 30 mg/kg [1, 2] was 17.1%, the inhibition in vivo at 30 mg/kg [1, 3] was 11.7% and the inhibition in vivo at 30 mg/kg [1, 4] was 14.1%. For the same compound, the “Blood pressure 2 hrs” value ([1]; oral 30 mg/kg) was 192 ± 15 mmHg, the “Blood pressure 4 hrs” value ([1]; oral 30 mg/kg) was 204 ± 5 mmHg and the “Blood pressure 6 hrs” value ([1]; oral 30 mg/kg) was 199 ± 8 mmHg.
For `COC[C@H]1O[C@@H](n2cnc3c(N)nc(C)nc32)[C@H](O)[C@@H]1O` [Compound 15, 2,5'-O-dimethyladenosine], the LD50 at 168 h (in vivo) was 500 to 1000 mg/kg, the inhibition in vivo at 10 mg/kg [1, 5] was 35.2% and the inhibition in vivo at 10 mg/kg [1, 6] was 17.7%. The inhibition in vivo at 10 mg/kg [1, 7] was 9.1%, the “Blood pressure 2 hrs” value ([1]; oral 10 mg/kg) was 154 ± 13 mmHg and the “Blood pressure 4 hrs” value ([1]; oral 10 mg/kg) was 195 ± 22 mmHg. The “Blood pressure 6 hrs” value ([1]; oral 10 mg/kg) was 215 ± 5 mmHg.
Work on `CCO[C@@H]1[C@H](O)[C@@H](CO)O[C@H]1n1cnc2c(N)ncnc21` [Compound 3, 2'-O-ethyladenosine] yielded an LD50 at 168 h (in vivo) of 750 to 1000 mg/kg, an inhibition in vivo at 100 mg/kg [1, 8] of 52.2% and an inhibition in vivo at 100 mg/kg [1, 9] of 49.5%. For the same compound, the inhibition in vivo at 100 mg/kg [1, 10] was 47.3%, the “Blood pressure 2 hrs” value ([1]; oral 100 mg/kg) was 102 ± 15 mmHg and the “Blood pressure 4 hrs” value ([1]; oral 100 mg/kg) was 106 ± 20 mmHg. The “Blood pressure 6 hrs” value ([1]; oral 100 mg/kg) was 111 ± 26 mmHg.
In the case of `CCO[C@@H]1[C@H](O)[C@@H](CO)O[C@H]1n1cnc2c(NC)nc(C)nc21` [Compound 22, 2,N^6-dimethyl-2'-O-ethyladenosine], the LD50 at 168 h (in vivo) is reported as ~400 mg/kg, the inhibition in vivo at 10 mg/kg [1, 5] is reported as 25.8% and the inhibition in vivo at 10 mg/kg [1, 6] is reported as 18.8%. For the same compound, the inhibition in vivo at 10 mg/kg [1, 7] was 13.1%, the “Blood pressure 2 hrs” value ([1]; oral 10 mg/kg) was 168 ± 6 mmHg and the “Blood pressure 4 hrs” value ([1]; oral 10 mg/kg) was 185 ± 7 mmHg. For the same compound, the “Blood pressure 6 hrs” value ([1]; oral 10 mg/kg) was 197 ± 3 mmHg.
In the case of `CO[C@@H]1[C@H](O)[C@@H](CO)O[C@H]1n1cnc2c(N)nc(Cl)nc21` [Compound 27, 2-chloro-2'-O-methyladenosine], the LD50 at 168 h (in vivo) is reported as ~400 mg/kg, the inhibition in vivo at 100 mg/kg [1, 8] is reported as 68.4% and the inhibition in vivo at 100 mg/kg [1, 9] is reported as 64.8%. For the same compound, the inhibition in vivo at 100 mg/kg [1, 10] was 66.9%, the “Blood pressure 2 hrs” value ([1]; oral 100 mg/kg) was 70 ± 10 mmHg and the “Blood pressure 4 hrs” value ([1]; oral 100 mg/kg) was 78 ± 8 mmHg. The “Blood pressure 6 hrs” value ([1]; oral 100 mg/kg) was 73 ± 16 mmHg.
Work on `CO[C@@H]1[C@H](O)[C@@H](CO)O[C@H]1n1cnc2c(N)nc(C)nc21` [Compound 5, 2,2'-O-dimethyladenosine] yielded an LD50 at 168 h (in vivo) of 540 mg/kg, an inhibition in vivo at 10 mg/kg [1, 5] of 40.2% and an inhibition in vivo at 10 mg/kg [1, 6] of 26.5%. The inhibition in vivo at 10 mg/kg [1, 7] was 12.7%, the “Blood pressure 2 hrs” value ([1]; oral 10 mg/kg) was 131 ± 6 mmHg and the “Blood pressure 4 hrs” value ([1]; oral 10 mg/kg) was 161 ± 11 mmHg. The “Blood pressure 6 hrs” value ([1]; oral 10 mg/kg) was 193 ± 24 mmHg.
In the case of `CO[C@@H]1[C@H](O)[C@@H](CO)O[C@H]1n1cnc2c(N)nc(F)nc21` [Compound 29, 2-fluoro-2'-O-methyladenosine], the LD50 at 168 h (in vivo) is reported as > 2000 mg/kg, the inhibition in vivo at 30 mg/kg [1, 2] is reported as 45.9% and the inhibition in vivo at 30 mg/kg [1, 3] is reported as 19.8%. The inhibition in vivo at 30 mg/kg [1, 4] was 16.4%, the “Blood pressure 2 hrs” value ([1]; oral 30 mg/kg) was 131 ± 4 mmHg and the “Blood pressure 4 hrs” value ([1]; oral 30 mg/kg) was 195 ± 5 mmHg. The “Blood pressure 6 hrs” value ([1]; oral 30 mg/kg) was 204 ± 3 mmHg.
